Literature values in patent publication US10729778B2, “Carrier-linked treprostinil prodrugs” (Ascendis Pharma A/S, priority 2011, dated 2020).

Settings: background statement

## CCCCC[C@H](O)CC[C@@H]1[C@H]2Cc3cccc(OCC(=O)O)c3C[C@H]2C[C@H]1O [Treprostinil]
  half-life: 4 h
